Where two headings read alike, the source gives them in different places.
Key:
thymocyte proliferation = assay: comitogen-induced thymocyte proliferation procedure (LAF); type: cell-based, BALB/c mice; details: for IC50: read-out: LAF IC50
Protocol: (§1) Immunosuppressive activity for a representative compound of this invention was evaluated in an in vitro standard pharmacological test procedure to measure lymphocyte proliferation (LAF) and in an in vivo standard pharmacological test procedure with evaluated the survival time of a pinch skin graft.
The comitogen-induced thymocyte proliferation procedure (LAF) was used as an […] measure of the immunosuppressive effects of representative compounds. Briefly, cells from the thymus of normal BALB/c mice are cultured for 72 hours with PHA and IL-1 and pulsed with tritiated thymidine during the last six hours. Cells are cultured with and without various concentrations of rapamycin, cyclosporin A, or test compound. Cells are harvested and incorporated radioactivity is determined. Inhibition of lymphoproliferation is assessed as percent change in counts per minute from non-drug treated controls. For each compound evaluated, rapamycin was also evaluated for the purpose of comparison. An IC50 was obtained for each test compound as well as for rapamycin. The results obtained for the representative compounds of this invention were also expressed as a ratio compared with rapamycin. A positive ratio indicates immunosuppressive activity. […] Calculation of the ratio is shown below. [formula]

skin graft = assay: pinch skin graft survival test procedure; type: in vivo, male BAB/c donors, male C3H(H-2K) recipients; details: 4 mg/kg of test compound; intraperitoneally or orally; untreated control 7.00 ± 0.00 days
Protocol: as §1
A representative compound of this invention was also evaluated in an in vivo test procedure designed to determine the survival time of pinch skin graft from male BAB/c donors transplanted to male C3 H(H-2K) recipients. The method is adapted from Billingham R. E. and Medawar P. B., J. Exp. Biol. 28:385-402, (1951). Briefly, a pinch skin graft from the donor was grafted on the dorsum of the recipient as a allograft, and an isograft was used as control in the same region. The recipients were treated with either varying concentrations of test compounds intraperitoneally or orally. Rapamycin was used as a test control. Untreated recipients serve as rejection control. The graft was monitored daily and observations were recorded until the graft became dry and formed a blackened scab. This was considered as the rejection day. The mean graft survival time (number of days±S.D.) of the drug treatment group was compared with the control group. […] Results are expressed as the mean survival time in days. Untreated (control) pinch skin grafts are usually rejected within 6-7 days. […]

Candida albicans = details: both in vitro and in vivo; cited from earlier work
[1] = alone or in combination with picibanil; cited from earlier work
[2] = tested on: experimental allergic encephalomyelitis model; details: model for multiple sclerosis; cited from earlier work
adjuvant arthritis model = details: model for rheumatoid arthritis; cited from earlier work
IgE-like antibodies = details: cited from earlier work

23,25-Deepoxy-23,25-(2-aminoethanethio)-rapamycin [Example 2]
T cell proliferation inhibition (thymocyte proliferation; at 10 nM): 77%
T cell proliferation inhibition (thymocyte proliferation; at 0.1 μM): 96%
LAF ratio (compared with rapamycin) (thymocyte proliferation; ratio > 1: inhibits thymocyte proliferation to a greater extent than rapamycin): 0.82
IC50 (thymocyte proliferation; thymocytes cultured 72 hours with PHA and IL-1, tritiated thymidine): 5.1 nM
Skin Graft survival (days ± SD) (skin graft): 9.00 ± 0.63 days

CO[C@H]1C[C@@H]2CC[C@@H](C)[C@@](O)(O2)C(=O)C(=O)N2CCCC[C@H]2C(=O)O[C@H]([C@H](C)C[C@@H]2CC[C@@H](O)[C@H](OC)C2)CC(=O)[C@H](C)/C=C(\C)[C@@H](O)[C@@H](OC)C(=O)[C@H](C)C[C@H](C)/C=C/C=C/C=C/1C [Rapamycin]
IC50 (thymocyte proliferation; Mus musculus, Thymocyte, 72 h): 4.2 nM
Skin Graft survival (days ± SD) (skin graft): 11.67 ± 0.63 days
antifungal activity (Candida albicans): antifungal activity, particularly against Candida albicans
antitumor activity [1]: antitumor activity
effect in experimental allergic encephalomyelitis model [2]: effective
effect in adjuvant arthritis model (adjuvant arthritis model): effective
inhibition of formation of IgE-like antibodies (IgE-like antibodies): effectively inhibited
